In patent publication US6706703B2, “Bis(5-aryl-2-pyridyl) derivatives” (Kowa Co., Ltd., priority 2001, dated 2004):
Structures can show the parent of a compound that is named as a salt. Marks after values point to notes of the source that are not given here.

Columns and labels:
IgE antibody production = assay: Evaluation of IgE antibody production inhibiting activity (B cells + LPS + mouse IL-4, IgE in culture supernatant by ELISA); format: cell-based; settings: B-cell, mouse (Balb/C) spleen B cells, LPS 1 day then mouse IL-4 6 days
Procedure: Test 1 (Evaluation of IgE Antibody Production Inhibiting Activity)
From a mouse (Balb/C, male, 8 weeks old), the spleen was enucleated. The spleen was shredded in 10% FEB/RPMI 1640, and was then disintegrated into single cells through a 70-mesh screen. Those single cells were hemolyzed with Gey's solution, and using RPMI 1640 medium/25 mM HEPES/0.3% BSA, a spleen cell suspension (1×10^7 cells/mL) was prepared. After an aliquot of the suspension was reacted with a rat anti-mouse Thy-1.2 monoclonal antibody (product of Cedarlane Laboratories Limited) at 4° C. for 1 hour, centrifugation was conducted. Precipitated cells were suspended again (1×10^7 cells/mL, RPMI/HEPES/BSA). After the suspension was next reacted with a low-cytotoxic rabbit complement (product of Cedarlane Laboratories Limited) at 37° C. for 1 hour, dead cells were removed by specific gravity centrifugation using Lympholyte M (product of Cedarlane Laboratories Limited) so that a B cell fraction was obtained as viable cells.
Using a 96-well plate, the B cells (2×10^5 cells/0.2 mL/well) were incubated together with LPS (E. coli 026:B6, product of DIFCO Laboratories, Inc.) for 1 day. Mouse IL-4 (product of Genzyme Corp.) was then added, followed by further incubation for 6 days.
The IgE antibody production inhibiting activity of each drug was calculated by adding the drug Day 1 of the incubation and assaying the quantity of IgE in the culture supernatant by ELISA after the incubation.

[1] = Solubility of each compound in water; format: physicochemical
Excerpt: Further, the solubility (%) of each compound in water was also estimated.

[2] = solubility in 0.1M hydrochloric acid (footnote *)

| SMILES | IC50 (IgE antibody production) [nM] | Water solubility ([1]; in water) [%] | Water solubility [1, 2] |
| --- | --- | --- | --- |
| COc1cc(-c2ccc(N3CCCN(c4ccc(-c5cc(OC)c(OC)c(OC)c5)cn4)CC3)nc2)cc(OC)c1OC [Example 26, 1,4-Bis[5-(3,4,5-trimethoxyphenyl)-2-pyridyl]hexahydro-1,4-diazepine Dimethanesulfonate] | 200 | 5 |  |
| COc1cc(-c2ccc(N3CCCN(c4ccc(-c5cc(OC)c(N)c(OC)c5)cn4)CC3)nc2)cc(OC)c1N [Example 34, 1,4-Bis[5-(4-amino-3,5-dimethoxyphenyl)-2-pyridyl]hexahydro-1,4-diazepine Tetrahydrochloride] | 300 | 5 |  |
| COc1cc(-c2ccc(N3CCCN(c4ccc(-c5cc(OC)c(N(C)C)c(OC)c5)cn4)CC3)nc2)cc(OC)c1N(C)C [Example 35, 1,4-Bis[5-(4-dimethylamino-3,5-dimethoxyphenyl)-2-pyridyl]hexahydro-1,4-diazepine] | 200 |  | 5* % |
| COc1cc(-c2ccc(N3CCN(CCCN4CCN(c5ccc(-c6cc(OC)c(OC)c(OC)c6)cn5)CC4)CC3)nc2)cc(OC)c1OC [Example 57, 1,3-Bis[4-[5-(3,4,5-trimethoxyphenyl)-2-pyridyl]-1-piperazinyl]propane] | 100 |  | 5* % |
| COc1cc(-c2ccc(N(C)CCN(C)c3ccc(-c4cc(OC)c(OC)c(OC)c4)cn3)nc2)cc(OC)c1OC [Example 58, N,N′-Bis[5-(3,4,5-trimethoxyphenyl)-2-pyridyl]-N,N′-dimethylethylenediamine Dimethanesulfonate] | 200 | 5 |  |
